pIC50: −log10 of the molar value.
Target: T1, HGFR (His6-HGFR cytoplasmic domain) (Homo sapiens, UniProt P08581)
T1 construct: made in house; host or cells: Spodoptera frugiperda Sf9 insect cells (baculovirus, pFastBac-HT)
Assay: Inhibitory activity against HGFR tyrosine kinase activity (HTRF)
Type: biochemical
Conditions: biotin-poly(GT), ATP, 30° C. 10 min, read-out: IC50 (concentration necessary to inhibit HGFR kinase activity by 50%)
From the text: The cytoplasmic domain of HGFR (Genbank Accession No. J02958) is a 1.3 kb DNA fragment beginning with Lys974 and including a stop codon, and described by Park et al. (Proc. Natl. Acad. Sci. U.S.A. 84(18), 6379-6383, 1987). The DNA fragment was isolated from the human placental cDNA library (purchased from Clontech) by PCR (TaKaRa Ex Taq™ Kit, purchased from TaKaRa) using two kinds of primers (SEQ ID NO: 1, 5′-[…]-3′ and SEQ ID NO: 2, 5′-[…]-3′, purchased from Invitrogen). The DNA fragment was cloned into a baculovirus transplace vector (pFastBac™-HT (purchased from GIBCO BRL)) to produce a recombinant construct. The construct was transfected into insect cells (Spodoptera frugiperda 9 (Sf9)) to produce a solution of HGFR transfected baculovirus (preparation of a recombinant baculovirus can be found in the standard text (Bac-to-Bac Baculovirus Expression System (GIBCO BRL)). The cloning of the other receptor tyrosine kinases and preparation of the recombinant baculovirus solutions were performed using a cytoplasmic fragment starting from Lys791 (VEGFR2, Genbank Accession No. L04947), a cytoplasmic fragment starting from Lys398 (FGFR1, Genbank Accession No. X52833) and a cytoplasmic fragment starting from Lys558 (PDGFRβ, Genbank Accession No. M21616) in stead of HGFR in the above method. EGFR was purchased from Sigma (Production No. E-2645).
To the suspension of Sf9 cells (3×10^8 cells) in SF-900II medium (purchased from Invitrogen) containing 2% FBS was added a solution of HGFR transfected baculovirus above (4 ml), followed by a shaking culture at 27° C. for 48 hrs. The cells infected with the HGFR transfected baculovirus were centrifuged at 1,000 rpm, 4° C. for 5 min to remove the supernatant. The precipitated infected cells were suspended in 80 ml of ice-cold PBS, and centrifuged at 1,000 rpm, 4° C. for 5 min to remove the supernatant. The precipitated infected cells were suspended in 40 ml of ice-cold Lysis Buffer (50 mM Tris-HCl (pH 8.5), 5 mM 2-mercaptoethanol, 100 mM KCl, 1 mM PMSF and 1% (v/v) NP-40). The suspension was centrifuged at 12,000 rpm, 4° C. for 30 min to provide a supernatant.
The supernatant was loaded onto an Ni-NTA agarose column (3 ml, purchased from Qiagen) equilibrated with 30 ml of Buffer A (20 mM Tris-HCl (pH 8.5), 5 mM 2-mercaptoethanol, 500 mM KCl, 20 mM imidazole and 10% (v/v) glycerol). The column was washed with 30 ml of Buffer A, 6 ml of Buffer B (20 mM Tris-HCl (pH 8.5), 5 mM 2-mercaptoethanol, 1 M KCl, and 10% (v/v) glycerol) and 6 ml of Buffer A in this order. Then, the column was eluted with 6 ml of Buffer C (20 mM Tris-HCl (pH 8.5), 5 mM 2-mercaptoethanol, 100 mM KCl, 100 mM imidazole, and 10% (v/v) glycerol) to provide a fraction. The fraction was entrapped in a dialysis membrane (purchased from Spectrum Laboratories), dialyzed at 4° C. overnight with 1 L of dialysis buffer (20 mM Tris-HCl (pH 7.5), 10% (v/v) glycerol, 1 mM dithiothreitol, 0.1 mM Na3VO4 and 0.1 mM EGTA), and stored at −80° C. until used. An aliquot of the dialyzed fraction was subjected to SDS electrophoresis, and then a recombinant protein (His6-HGFR, the HGFR cytoplasmic domain fused with six histidine at the N terminus) detected at a molecular weight of about 60 kDa when stained with Coomassie Brilliant Blue, was determined with regard to protein content using BSA (purchased from Sigma) as a standard. The VEGFR2 cytoplasmic domain, the FGFR1 cytoplasmic domain, and the PDGFRβ cytoplasmic domain were fused with six histidine at the N terminus by the similar method to produce respective recombinant proteins (His6-VEGFR2, His6-FGFR1, and His6-PDGFRβ). […]

T1 sequence (P08581 956-1390 limits assumed): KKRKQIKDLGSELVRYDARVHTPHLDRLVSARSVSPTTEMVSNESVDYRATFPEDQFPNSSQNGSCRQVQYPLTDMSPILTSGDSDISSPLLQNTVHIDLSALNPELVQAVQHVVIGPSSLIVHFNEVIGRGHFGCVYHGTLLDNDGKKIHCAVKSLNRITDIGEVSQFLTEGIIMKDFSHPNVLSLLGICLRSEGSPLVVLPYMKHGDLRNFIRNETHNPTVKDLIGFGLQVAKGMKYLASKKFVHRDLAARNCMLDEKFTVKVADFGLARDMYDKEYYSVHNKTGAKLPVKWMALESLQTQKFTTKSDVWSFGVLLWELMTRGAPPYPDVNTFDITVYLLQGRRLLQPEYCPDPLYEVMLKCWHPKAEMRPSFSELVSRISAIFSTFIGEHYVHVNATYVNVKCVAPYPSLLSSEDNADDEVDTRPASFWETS

Cc1cc(Oc2ccnc(NC(=O)N(C)C)c2)ccc1NC(=O)CC(=O)Nc1ccc(F)cc1 [Example 86, N-{4-[2-(3,3-Dimethylureido)pyridin-4-yloxy]-2-methylphenyl}-N′-(4-fluorophenyl)malonamide]
pIC50: 7.26

CN1CCN(CCCN(C)C(=O)Nc2cc(Oc3ccc(NC(=O)CC(=O)Nc4ccc(F)cc4)c(F)c3)ccn2)CC1 [Example 93, N-[2-Fluoro-4-(2-{3-methyl-3-[3-(4-methylpiperazin-1-yl)propyl]ureido}pyridin-4-yloxy)phenyl]-N′-(4-fluorophenyl)malonamide]
pIC50: 7.03

O=C(Cc1ccccc1)NC(=S)Nc1ccc(Oc2ccnc(NC(=O)N3CCC3)c2)cc1Cl [Example 100, Azetidine-1-carboxylic acid {4-[3-chloro-4-(3-phenylacetylthioureido)phenoxy]pyridin-2-yl}amide]
pIC50: 6.70

CN1CCC(N(C)C(=O)Nc2cc(Oc3ccc(NC(=S)NC(=O)Cc4ccc(F)cc4)cc3F)ncn2)CC1 [Example 170, 3-[6-(2-Fluoro-4-{3-[2-(4-fluorophenyl)acetyl]thioureido}phenoxy)pyrimidin-4-yl]-1-methyl-1-(1-methylpiperidin-4-yl)urea]
pIC50: 7.18

O=C(Cc1ccc(F)cc1)NC(=S)Nc1ccc(Oc2cc(NC(=O)N3CCC(N4CCC4)CC3)ncn2)c(F)c1 [Example 172, 4-(Azetidin-1-yl)piperidine-1-carboxylic acid [6-(2-fluoro-4-{3-[2-(4-fluorophenyl)acetyl]thioureido}phenoxy)pyrimidin-4-yl]amide]
pIC50: 7.19

O=C(Cc1ccc(F)cc1)NC(=O)Nc1ccc(Oc2ccnc(NC(=O)N3CCC(N4CCCC4)CC3)c2)c(F)c1 [Example 174, 4-(Pyrrolidin-1-yl)piperidine-1-carboxylic acid [4-(2-fluoro-4-{3-[2-(4-fluorophenyl)acetyl]ureido}phenoxy)pyridin-2-yl]amide]
pIC50: 7.13

O=C(Cc1ccc(F)cc1)NC(=O)Nc1ccc(Oc2ccnc(NC(=O)N3CCC(N4CCC4)CC3)c2)cc1F [Example 178, 4-(Azetidin-1-yl)piperidine-1-carboxylic acid [4-(3-fluoro-4-{3-[2-(4-fluorophenyl)acetyl]ureido}phenoxy)pyridin-2-yl]amide]
pIC50: 7.20

CN(C)C[C@@H]1CCN(C(=O)Nc2cc(Oc3ccc(NC(=S)NC(=O)Cc4ccc(F)cc4)cc3F)ncn2)C1 [Example 179, 4-{[(3S)-3-(Dimethylaminomethyl)pyrrolidin-1-yl]carbonylamino}-6-(2-fluoro-4-{3-[2-(4-fluorophenyl)acetyl]thioureido}phenoxy)pyrimidine]
pIC50: 7.60

CN(C)CC1CCN(C(=O)Nc2cc(Oc3ccc(NC(=S)NC(=O)Cc4ccc(F)cc4)cc3F)ncn2)CC1 [Example 180, 4-{[4-(Dimethylaminomethyl)piperidin-1-yl]carbonylamino}-6-(2-fluoro-4-{3-[2-(4-fluorophenyl)acetyl]thioureido}phenoxy)pyrimidine]
pIC50: 7.42

CN(C)CCN1CCN(C(=O)Nc2cc(Oc3ccc(NC(=S)NC(=O)Cc4ccc(F)cc4)cc3F)ncn2)CC1 [Example 181, 4-{[4-(2-Dimethylaminoethyl)piperazin-1-yl]carbonylamino}-6-(2-fluoro-4-{3-[2-(4-fluorophenyl)acetyl]thioureido}phenoxy)pyrimidine]
pIC50: 7.39

CN1CCN(C2CCN(C(=O)Nc3cc(Oc4ccc(NC(=S)NC(=O)Cc5ccccc5)cc4F)ccn3)CC2)CC1 [Example 182, 4-{2-Fluoro-4-[3-(2-phenylacetyl)thioureido]phenoxy}-2-{[4-(1-methylpiperazin-4-yl)piperidin-1-yl]carbonylamino}pyridine]
pIC50: 7.15

CN(C)CCN1CCC(N(C)C(=O)Nc2cc(Oc3ccc(NC(=S)NC(=O)Cc4ccc(F)cc4)c(F)c3)ccn2)CC1 [Example 183]
pIC50: 6.80

CN(C)CCN1CCC(N(C)C(=O)Nc2cc(Oc3ccc(NC(=S)NC(=O)Cc4ccc(F)cc4)cc3F)ncn2)CC1 [Example 184, 1-[1-(2-Dimethylaminoethyl)piperidin-4-yl]-3-[6-(2-fluoro-4-{3-[2-(4-fluorophenyl)acetyl]thioureido}phenoxy)pyrimidin-4-yl]-1-methylurea]
pIC50: 6.89

O=C(Cc1ccccc1)NC(=S)Nc1ccc(Oc2ccnc(NC(=O)N3CCC(N4CCC(O)CC4)CC3)c2)c(F)c1 [Example 185, 4-{2-Fluoro-4-[3-(2-phenylacetyl)thioureido]phenoxy}-2-{[4-(4-hydroxypiperidin-1-yl)piperidin-1-yl]carbonylamino}pyridine]
pIC50: 7.33

CN(C)CC1CCN(C(=O)Nc2cc(Oc3ccc(NC(=S)NC(=O)Cc4ccc(F)cc4)cc3)ccn2)CC1 [Example 188, 2-{[4-(Dimethylaminomethyl)piperidin-1-yl]carbonylamino}-4-(4-{3-[2-(4-fluorophenyl)acetyl]thioureido}phenoxy)pyridine]
pIC50: 6.89

CN(C)C1CN(C2CCN(C(=O)Nc3cc(Oc4ccc(NC(=S)NC(=O)Cc5ccc(F)cc5)c(F)c4)ccn3)CC2)C1 [Example 189, 4-[3-(Dimethylamino)azetidin-1-yl]piperidine-1-carboxylic acid [4-(3-fluoro-4-{3-[2-(4-fluorophenyl)acetyl]thioureido}phenoxy)pyridin-2-yl]amide]
pIC50: 6.96

O=C(Cc1ccc(F)cc1)NC(=S)Nc1ccc(Oc2ccnc(NC(=O)N3CCC(N4CCC(O)CC4)CC3)c2)cc1 [Example 190, 2-{[4-(4-Hydroxypiperidin-1-yl)piperidin-1-yl]carbonylamino}-4-(4-{3-[2-(4-fluorophenyl)acetyl]thioureido}phenoxy)pyridine]
pIC50: 7.22

CN1CCN(C2CCN(C(=O)Nc3cc(Oc4ccc(NC(=S)NC(=O)Cc5ccc(F)cc5)cc4)ccn3)CC2)CC1 [Example 191, 4-(4-{3-[2-(4-Fluorophenyl)acetyl]thioureido}phenoxy)-2-{[4-(1-methylpiperazin-4-yl)piperidin-1-yl]carbonylamino}pyridine]
pIC50: 7.24

CN1CCN(C2CCN(C(=O)Nc3cc(Oc4ccc(NC(=S)NC(=O)Cc5ccc(F)cc5)cc4F)ncn3)CC2)CC1 [Example 192, 4-(2-Fluoro-4-{3-[2-(4-fluorophenyl)acetyl]thioureido}phenoxy)-6-{[4-(1-methylpiperazin-4-yl)piperidin-1-yl]carbonylamino}pyrimidine]
pIC50: 7.40

CN1CCC(N2CCN(C(=O)Nc3cc(Oc4ccc(NC(=S)NC(=O)Cc5ccc(F)cc5)cc4F)ncn3)CC2)CC1 [Example 193, 4-(2-Fluoro-4-{3-[2-(4-fluorophenyl)acetyl]thioureido}phenoxy)-6-{[4-(1-methylpiperidin-4-yl)piperazin-1-yl]carbonylamino}pyrimidine]
pIC50: 7.28

CN(C)CCN1CCC(N(C)C(=O)Nc2cc(Oc3ccc(NC(=S)NC(=O)Cc4ccc(F)cc4)cc3)ccn2)CC1 [Example 194, 1-[1-(2-Dimethylaminoethyl)piperidin-4-yl]-3-[4-(4-{3-[2-(4-fluorophenyl)acetyl]thioureido}phenoxy)pyridin-2-yl]-1-methylurea]
pIC50: 7.21

CN(C)C1CN(C2CCN(C(=O)Nc3cc(Oc4ccc(NC(=S)NC(=O)Cc5ccc(F)cc5)cc4)ccn3)CC2)C1 [Example 195, 4-[3-(Dimethylamino)azetidin-1-yl]piperidine-1-carboxylic acid [4-(4-{3-[2-(4-fluorophenyl)acetyl]thioureido}phenoxy)pyridin-2-yl]amide]
pIC50: 7.24
